Assay results reported in patent US11000033B2, “Ketone or oxime compound, and herbicide” (NISSAN CHEMICAL CORPORATION, priority 2014, dated 2021).

Key:
Format in all cases: in vivo
Scirpus juncoides = assay: Test Example 1: herbicidal activity, application before weed generation in submerged conditions (symbol B); settings: application herbicide amount 320 g/ha
Summary of the method: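 Ratings (5: ≥90%, near complete withering; 4: 70–<90%; 3: 40–<70%; 2: 20–<40%; 1: 5–<20%; 0: ≤5%) were assigned 3 weeks after the diluted emulsion was applied to the water surface of freshly sown, submerged pots.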

transplanted rice plant = assay: Test Example 1: effect on crop, application before weed generation in submerged conditions (symbol a); settings: application herbicide amount 320 g/ha
Summary of the method: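 Alluvial soil pots flooded to 4 cm water, sown with Echinochloa oryzacola, Scirpus juncoides and Monochoria vaginalis, then transplanted with 2.5 leaf stage rice seedlings; pre-emergence application. Greenhouse 25° C. to 30° C.; scored 0–5 by herbicidal ratio 3 weeks after application.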

Leptochloa chinensis = assay: Test Example 3: herbicidal effect by foliage application, Wagner pot (symbol D); settings: application herbicide amount 320 g/ha
Summary of the method: (§1)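 Plants sown in submerged alluvial soil (water depth 0.1–0.5 cm) in a 25–30 °C greenhouse and grown 14 days. An emulsion of the compound diluted in water to a set herbicide amount was sprayed uniformly on foliage. Effect on each plant scored 3 weeks after application.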

Cyperus difformis = assay: Test Example 3: herbicidal effect by foliage application, Wagner pot (symbol E); settings: application herbicide amount 320 g/ha
Summary of the method: as §1

[1] = test system: Echinochloa crus-galli var. crus-galli; assay: Test Example 4: herbicidal effect by soil treatment (symbol H); settings: application herbicide amount 320 g/ha
Summary of the method: (§2)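 Seeds were sown in sterilized diluvial soil, covered with about 1.5 cm of soil, and the soil surface was sprayed with a water-diluted emulsion of the compound at a predetermined rate. Plants grew in a greenhouse at 25° C. to 30° C.; effects were scored visually 3 weeks after application.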

Lolium multiflorum Lam. = assay: Test Example 4: herbicidal effect by soil treatment (symbol K); settings: application herbicide amount 320 g/ha
Summary of the method: as §2

Amaranthus retroflexus = assay: Test Example 4: herbicidal effect by soil treatment (symbol N); settings: application herbicide amount 320 g/ha
Summary of the method: as §2

corn = assay: Test Example 4: effect on crop by soil treatment (symbol c); settings: application herbicide amount 320 g/ha
Summary of the method: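 Seeds were sown in spots on sterilized diluvial soil in a plastic box and covered with about 1.5 cm of soil. Plants were then grown in a greenhouse at 25° C. to 30° C.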

beet = assay: Test Example 4: effect on crop by soil treatment (symbol f); settings: application herbicide amount 320 g/ha
Summary of the method: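 Steps: fill box with sterilized diluvial soil; sow seed spot-like; cover with ~1.5 cm soil; grow in greenhouse (25° C. to 30° C.).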

Setaria viridis = assay: Test Example 5: herbicidal effect by foliage application, plastic box (symbol G); settings: 320 g/ha, 3 weeks after application
Summary of the method: (§3)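 Seeds were sown in sterilized diluvial soil, covered with about 1.5 cm of soil and grown 14 days in a greenhouse at 25° C. to 30° C. An emulsifiable formulation diluted in water to a set rate was sprayed over foliage, and injury was scored 3 weeks later.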

Galium spurium = assay: Test Example 5: herbicidal effect by foliage application, plastic box (symbol Q); settings: 320 g/ha, 3 weeks after application
Summary of the method: as §3

Veronica persica = assay: Test Example 5: herbicidal effect by foliage application, plastic box (symbol R); settings: 320 g/ha, 3 weeks after application
Summary of the method: as §3

soybean = assay: Test Example 5: effect on crop by foliage application, plastic box (symbol d); settings: 320 g/ha, 3 weeks after application
Summary of the method: (§4)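 Crop and weed seeds sown in spots in sterilized diluvial soil in plastic boxes and covered with about 1.5 cm soil. Plants raised in a greenhouse at 25° C. to 30° C. for foliar application.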

wheat = assay: Test Example 5: effect on crop by foliage application, plastic box (symbol e); settings: 320 g/ha, 3 weeks after application
Summary of the method: as §4

Structure (SMILES)	Herbicidal effect grade, B: Scirpus juncoides (Scirpus juncoides)	Effect grade on crop, a: transplanted rice plant (transplanted rice plant)	herbicidal effect on D (Leptochloa chinensis), grade 0-5 (Leptochloa chinensis)	herbicidal effect on E, grade 0-5 (Cyperus difformis)	H (Echinochloa crus-galli var. crus-galli) herbicidal effect grade [1]	K (Lolium multiflorum Lam.) herbicidal effect grade (Lolium multiflorum Lam.)	N (Amaranthus retroflexus) herbicidal effect grade (Amaranthus retroflexus)	c (corn) effect on crop grade (corn)	f (beet) effect on crop grade (beet)	G: Setaria viridis, herbicidal effect grade (Setaria viridis)	Q: Galium spurium, herbicidal effect grade (Galium spurium)	R: Veronica persica, herbicidal effect grade (Veronica persica)	d: soybean, effect on crop grade (soybean)	e: wheat, effect on crop grade (wheat)
CON=CCC1CC(O)=C(c2c(C)cc(C)cc2C)C1=O (stereo not drawn) [1-050]	2 (Herbicidal ratio of 20% or higher and lower than 40%)	4 (Herbicidal ratio of 70% or higher and lower than 90%)	4 (Herbicidal ratio of 70% or higher and lower than 90%)	5 (Herbicidal ratio of 90% or more (almost completely withered))	4 (Herbicidal ratio of 70% or higher and lower than 90%)	4 (Herbicidal ratio of 70% or higher and lower than 90%)	0 (Herbicidal ratio of 5% or lower (almost no effect))	0 (Herbicidal ratio of 5% or lower (almost no effect))	0 (Herbicidal ratio of 5% or lower (almost no effect))	5 (Herbicidal ratio of 90% or more (almost completely withered))	0 (Herbicidal ratio of 5% or lower (almost no effect))	0 (Herbicidal ratio of 5% or lower (almost no effect))	0 (Herbicidal ratio of 5% or lower (almost no effect))	0 (Herbicidal ratio of 5% or lower (almost no effect))
CSCCON=C(C)CC1CC(O)=C(c2c(C)cc(C)cc2C)C1=O (stereo not drawn) [1-029]	0 (Herbicidal ratio of 5% or lower (almost no effect))	5 (Herbicidal ratio of 90% or more (almost completely withered))	5 (Herbicidal ratio of 90% or more (almost completely withered))	4 (Herbicidal ratio of 70% or higher and lower than 90%)	5 (Herbicidal ratio of 90% or more (almost completely withered))	5 (Herbicidal ratio of 90% or more (almost completely withered))	0 (Herbicidal ratio of 5% or lower (almost no effect))	0 (Herbicidal ratio of 5% or lower (almost no effect))	0 (Herbicidal ratio of 5% or lower (almost no effect))	5 (Herbicidal ratio of 90% or more (almost completely withered))	3 (Herbicidal ratio of 40% or higher and lower than 70%)	1 (Herbicidal ratio of 5% or higher and lower than 20%)	1 (Herbicidal ratio of 5% or higher and lower than 20%)	5 (Herbicidal ratio of 90% or more (almost completely withered))
CC(CC1CC(O)=C(c2c(C)cc(C)cc2C)C1=O)=NOCC(=O)N1CCOCC1 (stereo not drawn) [1-025]	2 (Herbicidal ratio of 20% or higher and lower than 40%)	3 (Herbicidal ratio of 40% or higher and lower than 70%)	5 (Herbicidal ratio of 90% or more (almost completely withered))	5 (Herbicidal ratio of 90% or more (almost completely withered))	5 (Herbicidal ratio of 90% or more (almost completely withered))	5 (Herbicidal ratio of 90% or more (almost completely withered))	0 (Herbicidal ratio of 5% or lower (almost no effect))	0 (Herbicidal ratio of 5% or lower (almost no effect))	0 (Herbicidal ratio of 5% or lower (almost no effect))	4 (Herbicidal ratio of 70% or higher and lower than 90%)	4 (Herbicidal ratio of 70% or higher and lower than 90%)	3 (Herbicidal ratio of 40% or higher and lower than 70%)	3 (Herbicidal ratio of 40% or higher and lower than 70%)	4 (Herbicidal ratio of 70% or higher and lower than 90%)
CON=C(CC1CC(O)=C(c2c(C)cc(C)cc2C)C1=O)C1CC1 (stereo not drawn) [1-046]	5 (Herbicidal ratio of 90% or more (almost completely withered))	5 (Herbicidal ratio of 90% or more (almost completely withered))	5 (Herbicidal ratio of 90% or more (almost completely withered))	5 (Herbicidal ratio of 90% or more (almost completely withered))	5 (Herbicidal ratio of 90% or more (almost completely withered))	5 (Herbicidal ratio of 90% or more (almost completely withered))	2 (Herbicidal ratio of 20% or higher and lower than 40%)	4 (Herbicidal ratio of 70% or higher and lower than 90%)	0 (Herbicidal ratio of 5% or lower (almost no effect))	5 (Herbicidal ratio of 90% or more (almost completely withered))	0 (Herbicidal ratio of 5% or lower (almost no effect))	4 (Herbicidal ratio of 70% or higher and lower than 90%)	3 (Herbicidal ratio of 40% or higher and lower than 70%)	4 (Herbicidal ratio of 70% or higher and lower than 90%)
CON=C(C)CC1CC(OC(=O)COc2ccccc2)=C(c2c(C)cc(C)cc2C)C1=O (stereo not drawn) [1-043]	5 (Herbicidal ratio of 90% or more (almost completely withered))	5 (Herbicidal ratio of 90% or more (almost completely withered))	5 (Herbicidal ratio of 90% or more (almost completely withered))	5 (Herbicidal ratio of 90% or more (almost completely withered))	5 (Herbicidal ratio of 90% or more (almost completely withered))	5 (Herbicidal ratio of 90% or more (almost completely withered))	4 (Herbicidal ratio of 70% or higher and lower than 90%)	4 (Herbicidal ratio of 70% or higher and lower than 90%)	4 (Herbicidal ratio of 70% or higher and lower than 90%)	5 (Herbicidal ratio of 90% or more (almost completely withered))	3 (Herbicidal ratio of 40% or higher and lower than 70%)	2 (Herbicidal ratio of 20% or higher and lower than 40%)	4 (Herbicidal ratio of 70% or higher and lower than 90%)	5 (Herbicidal ratio of 90% or more (almost completely withered))
CON=C(CC1CC(O)=C(c2c(C)cc(C)cc2C)C1=O)c1ccccn1 (stereo not drawn) [1-045]	2 (Herbicidal ratio of 20% or higher and lower than 40%)	3 (Herbicidal ratio of 40% or higher and lower than 70%)	4 (Herbicidal ratio of 70% or higher and lower than 90%)	0 (Herbicidal ratio of 5% or lower (almost no effect))	0 (Herbicidal ratio of 5% or lower (almost no effect))	4 (Herbicidal ratio of 70% or higher and lower than 90%)	0 (Herbicidal ratio of 5% or lower (almost no effect))	0 (Herbicidal ratio of 5% or lower (almost no effect))	0 (Herbicidal ratio of 5% or lower (almost no effect))	5 (Herbicidal ratio of 90% or more (almost completely withered))	0 (Herbicidal ratio of 5% or lower (almost no effect))	0 (Herbicidal ratio of 5% or lower (almost no effect))	1 (Herbicidal ratio of 5% or higher and lower than 20%)	0 (Herbicidal ratio of 5% or lower (almost no effect))
